Data: US20230117034A1, “PYRAZOLOTRIAZINES” (Bayer Aktiengesellschaft, priority 2019, published 2023)

Tests used:
CDK12/CycK = CDK12/CycK (Homo sapiens, UniProt Q9NYV4); assay: CDK12/CycK high ATP kinase assay (TR-FRET, 2 mM ATP); format: biochemical; settings: 2 mM ATP (high ATP); median; read-out: CDK12/CyclinK, 2 mM ATP (high ATP), IC50-[mol/l] (median)
Method in brief: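 His-tagged human CDK12/CycK (~0.75 nM) pre-incubated 15 min with compound, then 60 min at 22 °C with 2 mM ATP and 1 µM biotinylated peptide (HEPES pH 7.5, 20 mM MgCl2). EDTA stop; phospho-Ser62 antibody/Eu anti-rabbit and streptavidin-XL665 TR-FRET, 665/620 nm ratio normalised to give IC50.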

CDK2/CycE = biological target: T1, CDK2/CycE (Homo sapiens, UniProt P24941); assay: CDK2/CycE kinase assay (TR-FRET, 2 mM ATP); format: biochemical; settings: 2 mM ATP (high ATP); median; read-out: CDK2/CyclinE, 2 mM ATP (high ATP), IC50 (median)
T1 construct: purchased ProQinase GmbH (Freiburg, Germany); host or cells: insect cells (Sf9)
Method in brief: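 GST-tagged human CDK2 and CycE from Sf9 cells, about 10 ng/ml, pre-incubated 15 min at 22 °C with compound in Tris/HCl pH 8.0 buffer. Reaction with 2 mM ATP and 0.75 µM biotinylated peptide for 25 min at 22 °C. Phospho-RB antibody TR-FRET (665/620 nm ratio) read after 1 h; data normalised to no-inhibitor and no-enzyme controls.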

Chain of CDK12/CycK (Q9NYV4 with tags, fused parts or gaps): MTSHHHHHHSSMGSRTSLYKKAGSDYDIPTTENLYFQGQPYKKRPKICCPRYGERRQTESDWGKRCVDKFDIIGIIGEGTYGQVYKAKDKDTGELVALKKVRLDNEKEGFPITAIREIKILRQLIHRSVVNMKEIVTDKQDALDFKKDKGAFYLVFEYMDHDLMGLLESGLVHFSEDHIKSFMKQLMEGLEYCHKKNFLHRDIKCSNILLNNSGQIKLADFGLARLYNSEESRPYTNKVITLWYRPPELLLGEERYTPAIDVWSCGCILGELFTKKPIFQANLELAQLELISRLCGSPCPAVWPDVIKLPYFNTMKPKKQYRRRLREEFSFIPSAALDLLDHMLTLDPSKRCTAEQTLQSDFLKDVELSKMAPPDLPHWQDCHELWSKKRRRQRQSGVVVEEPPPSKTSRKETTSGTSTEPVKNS
Chain of CDK12/CycK (O75909 1-300 partner limits assumed): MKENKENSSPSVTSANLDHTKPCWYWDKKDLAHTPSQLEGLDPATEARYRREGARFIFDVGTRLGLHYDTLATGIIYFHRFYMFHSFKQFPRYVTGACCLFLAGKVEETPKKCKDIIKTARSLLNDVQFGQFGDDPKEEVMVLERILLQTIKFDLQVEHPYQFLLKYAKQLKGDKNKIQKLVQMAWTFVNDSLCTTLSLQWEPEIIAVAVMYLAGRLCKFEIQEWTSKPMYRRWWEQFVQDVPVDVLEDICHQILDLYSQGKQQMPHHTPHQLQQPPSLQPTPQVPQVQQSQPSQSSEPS

Compound	IC50 (CDK12/CycK)	IC50 (CDK2/CycE)
Fc1ccc2[nH]c(CNc3nc(N4CCNCC4)nc4c(C5CC5)cnn34)nc2c1 [Example 190, 8-cyclopropyl-N-[(5-fluoro-1H-benzimidazol-2-yl)methyl]-2-(piperazin-1-yl)pyrazolo[1,5-a][1,3,5]triazin-4-amine]	6.17 µM	> 20 µM
Fc1ccc2[nH]c(CNc3nc(N4CCOCC4)nc4c(C5CC5)cnn34)nc2c1 [Example 181, 8-cyclopropyl-N-[(5-fluoro-1H-benzimidazol-2-yl)methyl]-2-(morpholin-4-yl)pyrazolo[1,5-a][1,3,5]triazin-4-amine]	1.91 µM	> 20 µM
O[C@H]1C[C@@H](Nc2nc(NCc3nc4ccccc4[nH]3)n3ncc(Br)c3n2)C1 [Example 234, cis-3-[(4-{[(1H-benzimidazol-2-yl)methyl]amino}-8-bromopyrazolo[1,5-a][1,3,5]triazin-2-yl)amino]cyclobutan-1-ol]	4.86 µM	2.73 µM
Brc1cnn2c(NCc3nc4ccccc4[nH]3)nc(NCCN3CCCC3)nc12 [Example 235, N4-(1H-benzimidazol-2-ylmethyl)-8-bromo-N2-(2-pyrrolidin-1-ylethyl)pyrazolo[1,5-a][1,3,5]triazine-2,4-diamine]	> 20 µM	> 20 µM
Cc1ccc2[nH]c(CNc3nc(N4CCNCC4)nc4c(Br)cnn34)nc2c1 [Example 204, 8-bromo-N-[(5-methyl-1H-benzimidazol-2-yl)methyl]-2-(piperazin-1-yl)pyrazolo[1,5-a][1,3,5]triazin-4-amine]	4.34 µM	10.9 µM
Brc1cnn2c(NCc3nc4ccccc4[nH]3)nc(N3CCNC4(CC4)C3)nc12 [Example 176, N-[(1H-benzimidazol-2-yl)methyl]-8-bromo-2-(4,7-diazaspiro[2.5]octan-7-yl)pyrazolo[1,5-a][1,3,5]triazin-4-amine]	2.33 µM	8.6 µM
CC(C)(O)CNc1nc(NCc2nc3ccccc3[nH]2)n2ncc(Br)c2n1 [Example 229, 1-[(4-{[(1H-benzimidazol-2-yl)methyl]amino}-8-bromopyrazolo[1,5-a][1,3,5]triazin-2-yl)amino]-2-methylpropan-2-ol]	5.51 µM	1.46 µM
Brc1cnn2c(NCc3nc4ccccc4[nH]3)nc(N3CCC4(CCCN4)C3)nc12 (stereo not drawn) [Example 215, N-(1H-benzimidazol-2-ylmethyl)-8-bromo-2-(1,7-diazaspiro[4.4]nonan-7-yl)pyrazolo[1,5-a][1,3,5]triazin-4-amine]	> 20 µM	8.98 µM
CC1CN(c2nc(NCc3nc4ccccc4[nH]3)n3ncc(C(C)C)c3n2)CCO1 (racemic) [Example 11, (rac)-N-[(1H-benzimidazol-2-yl)methyl]-2-[2-methylmorpholin-4-yl]-8-(propan-2-yl)pyrazolo[1,5-a][1,3,5]triazin-4-amine]	3.16 µM	5.51 µM
CN1CC[C@@H]2CN(c3nc(NCc4nc5ccccc5[nH]4)n4ncc(Br)c4n3)C[C@@H]21 [Example 217, N-[(1H-benzimidazol-2-yl)methyl]-8-bromo-2-[(3aR,6aR)-1-methylhexahydropyrrolo[3,4-b]pyrrol-5 (1H)-yl]pyrazolo[1,5-a][1,3,5]triazin-4-amine]	> 20 µM	> 20 µM
COC(C)(C)CNc1nc(NCc2nc3ccccc3[nH]2)n2ncc(Br)c2n1 [Example 236, N4-(1H-benzimidazol-2-ylmethyl)-8-bromo-N2-(2-methoxy-2-methyl-propyl)pyrazolo[1,5-a][1,3,5]triazine-2,4-diamine]	> 17.9 µM	12.8 µM
Brc1cnn2c(NCc3nc4ccccc4[nH]3)nc(N3C[C@H]4CCCN[C@H]4C3)nc12 [Example 199, N-[(1H-benzimidazol-2-yl)methyl]-8-bromo-2-[(4aR, 7aR)-octahydro-6H-pyrrolo[3,4-b]pyridin-6-yl]pyrazolo[1,5-a][1,3,5]triazin-4-amine]	14.8 µM	5.17 µM
CN(CCN1CCCC1)c1nc(NCc2nc3ccccc3[nH]2)n2ncc(Br)c2n1 [Example 239, N4-(1H-benzimidazol-2-ylmethyl)-8-bromo-N2-methyl-N2-(2-pyrrolidin-1-ylethyl)pyrazolo[1,5-a][1,3,5]triazine-2,4-diamine]	> 20 µM	> 20 µM
CN1CC[C@H]2CN(c3nc(NCc4nc5ccccc5[nH]4)n4ncc(Br)c4n3)C[C@H]21 [Example 179, N-[(1H-benzimidazol-2-yl)methyl]-8-bromo-2-[(3aS,6aS)-1-methylhexahydropyrrolo[3,4-b]pyrrol-5 (1H)-yl]pyrazolo[1,5-a][1,3,5]triazin-4-amine]	> 20 µM	> 20 µM
Brc1cnn2c(NCc3nc4ccccc4[nH]3)nc(N3CC4CCC(C3)N4)nc12 [Example 232, N-(1H-benzimidazol-2-ylmethyl)-8-bromo-2-(3,8-diazabicyclo[3.2.1]octan-3-yl)pyrazolo[1,5-a][1,3,5]triazin-4-amine]	5.28 µM	2.87 µM
CN1CCCC2CN(c3nc(NCc4nc5ccccc5[nH]4)n4ncc(Br)c4n3)CC21 (stereo not drawn) [Example 231, N-[(1H-benzimidazol-2-yl)methyl]-8-bromo-2-(1-methyloctahydro-6H-pyrrolo[3,4-b]pyridin-6-yl)pyrazolo[1,5-a][1,3,5]triazin-4-amine]	> 20 µM	12.4 µM
COc1cccc2[nH]c(CNc3nc(N4C[C@H]5C[C@@H]4CO5)nc4c(C5CC5)cnn34)nc12 [Example 198, 8-cyclopropyl-N-[(4-methoxy-1H-benzimidazol-2-yl)methyl]-2-[(1R,4R)-2-oxa-5-azabicyclo[2.2.1]heptan-5-yl]pyrazolo[1,5-a][1,3,5]triazin-4-amine]	7.48 µM	9.94 µM
COc1cccc2[nH]c(CNc3nc(N4CCNCC4)nc4c(C5CC5)cnn34)nc12 [Example 211, 8-cyclopropyl-N-[(4-methoxy-1H-benzimidazol-2-yl)methyl]-2-(piperazin-1-yl)pyrazolo[1,5-a][1,3,5]triazin-4-amine]	2.74 µM	8.56 µM
Cc1ccc2[nH]c(CNc3nc(N4C[C@H]5C[C@@H]4CO5)nc4c(C5CC5)cnn34)nc2c1 [Example 196, 8-cyclopropyl-N-[(5-methyl-1H-benzimidazol-2-yl)methyl]-2-[(1R,4R)-2-oxa-5-azabicyclo[2.2.1]heptan-5-yl]pyrazolo[1,5-a][1,3,5]triazin-4-amine]	15.4 µM	> 19.8 µM
CN1CCN(c2nc(NCc3nc4ccccc4[nH]3)n3ncc(Br)c3n2)CC1 [Example 18, N-[(1H-benzimidazol-2-yl)methyl]-8-bromo-2-(4-methylpiperazin-1-yl)pyrazolo[1,5-a][1,3,5]triazin-4-amine]	> 15.7 µM	6.29 µM
CN(C)[C@H]1CCN(c2nc(NCc3nc4ccccc4[nH]3)n3ncc(Br)c3n2)C1 [Example 177, N-[(1H-benzimidazol-2-yl)methyl]-8-bromo-2-[(3S)-3-(dimethylamino)pyrrolidin-1-yl]pyrazolo[1,5-a][1,3,5]triazin-4-amine]	> 20 µM	> 20 µM
CN1CCN(c2nc(NCc3nc4ccccc4[nH]3)n3ncc(-c4ccncc4)c3n2)CC1 [Example 242, N-[(1H-benzimidazol-2-yl)methyl]-2-(4-methylpiperazin-1-yl)-8-(pyridin-4-yl)pyrazolo[1,5-a][1,3,5]triazin-4-amine]	> 20 µM	> 20 µM
COc1cccc2[nH]c(CNc3nc(N4C[C@@H](C)N[C@@H](C)C4)nc4c(C5CC5)cnn34)nc12 [Example 212, 8-cyclopropyl-2-[(3R,5S)-3,5-dimethylpiperazin-1-yl]-N-[(4-methoxy-1H-benzimidazol-2-yl)methyl]pyrazolo[1,5-a][1,3,5]triazin-4-amine]	4.15 µM	> 19 µM
COc1cccc2[nH]c(CNc3nc(N4CCN(C)CC4)nc4c(C5CC5)cnn34)nc12 [Example 197, 8-cyclopropyl-N-[(4-methoxy-1H-benzimidazol-2-yl)methyl]-2-(4-methylpiperazin-1-yl)pyrazolo[1,5-a][1,3,5]triazin-4-amine]	9.53 µM	13.4 µM
Cc1ccc2[nH]c(CNc3nc(N4C[C@@H](C)N[C@@H](C)C4)nc4c(C5CC5)cnn34)nc2c1 [Example 194, 8-cyclopropyl-2-[(3R,5S)-3,5-dimethylpiperazin-1-yl]-N-[(5-methyl-1H-benzimidazol-2-yl)methyl]pyrazolo[1,5-a][1,3,5]triazin-4-amine]	3.7 µM	> 20 µM
Fc1cccc2[nH]c(CNc3nc(N4CCNCC4)nc4c(C5CC5)cnn34)nc12 [Example 182, 8-cyclopropyl-N-[(4-fluoro-1H-benzimidazol-2-yl)methyl]-2-(piperazin-1-yl)pyrazolo[1,5-a][1,3,5]triazin-4-amine]	2.04 µM	> 20 µM
CN1C[C@H]2C[C@@H]1CN2c1nc(NCc2nc3ccccc3[nH]2)n2ncc(Br)c2n1 [Example 218, N-[(1H-benzimidazol-2-yl)methyl]-8-bromo-2-[(1R,4R)-5-methyl-2,5-diazabicyclo[2.2.1]heptan-2-yl]pyrazolo[1,5-a][1,3,5]triazin-4-amine]	> 20 µM	5.78 µM
